From paper PMC12298883, “Discovery of Cyclopentane-Based Phospholipids as Miltefosine Analogs with Superior Potency and Enhanced Selectivity Against Naegleria fowleri” (Pharmaceuticals, 2025)

How the values were obtained:
[1] = Cytotoxicity assay for C6 cells (CellTiter-Blue); type: cell-based; conditions: rat, C6 glial cells, viability, mean ± SD
Procedure: (§1) A viability assay was performed to evaluate the inhibitory activity of the tested compounds by determining their IC50 values against N. fowleri, using miltefosine as a reference drug. To assess the selectivity of the tested compounds relative to miltefosine, cytotoxic values that reduced the viability of C6 glial cells by 50% were established.
(§2) N. fowleri Carter NF69 strain (ATCC 30215; American Type Culture Collection, Manassas, VA, USA) was used. Amoeba trophozoites were cultured and maintained in Nelson’s medium containing 5% foetal bovine serum (FBS; Gibco, Grand Island, NY, USA) and 1% penicillin/streptomycin (P/S; Gibco, Grand Island, NY, USA) at 37 °C [56]. C6 rat glial cells (C6 cells; ATCC CCL-107) were cultured in Dulbecco’s Modified Eagle’s Medium (DMEM; Gibco, Grand Island, NY, USA) supplemented with 10% FBS (Gibco, Grand Island, NY, USA) and 1% P/S (Gibco, Grand Island, NY, USA) at 37 °C in a humidified incubator under 5% CO2 atmosphere.
The potential cytotoxicity of tested compounds and miltefosine in C6 cells was analysed. The cells were seeded in a 96-well microplate (Thermo Fisher Scientific; 2 × 10^4 cells/well), respectively, and incubated overnight until 80% confluent. Serially diluted tested compounds and miltefosine were treated to the cells as described above. Morphological changes of the cells were observed by microscopic examination. Cell viability was determined using the CellTiter-Blue® Cell viability assay (Promega, […], USA). The cytotoxic concentrations 50 (CC50) of tested compounds and miltefosine were calculated using GraphPad Prism 9.1.0 software (GraphPad Software, San Diego, CA, USA). The […] (SI) was determined by the ratio between CC50 and IC50. Cells treated with 0.1% DMSO, which was confirmed not to alter the morphology of the cells by microscopic examination, were used as controls with 100% cell viability.

[2] = system: N. fowleri trophozoites; experiment: Anti-amoebic viability assay (CellTiter-Blue) with microscopic observation; type: cell-based, Naegleria fowleri; conditions: for Selectivity Index: CC50 of C6 glial cell divided by IC50 of inhibition of N. fowleri; for Relative Potency to Miltefosine: IC50 of miltefosine divided by IC50 of compound, N. fowleri; for IC50: Naegleria fowleri, 48 h, N. fowleri trophozoites, viability, mean ± SD of three assays, read-out: IC50 of Inhibition of N. fowleri; for fold increase in potency of anti-amoebic activity relative to corresponding cis-configured derivative: trans vs cis 1,2-restricted derivative with same alkyl chain
Procedure: as §1, §2
N. fowleri trophozoites (5 × 10^4 cells/well) were seeded in a 96-well microplate (Thermo Fisher Scientific, Waltham, MA, USA) in Nelson’s medium and incubated at 37 °C overnight. N. fowleri trophozoites were treated with 2-fold serial dilutions of tested compounds (from 0 to 200 µM) or miltefosine (150 µM) and incubated at 37 °C for 48 h. The viability of the amoebae was determined using the CellTiter-Blue® Cell viability assay (Promega, Madison, WI, USA). Inhibitory concentration 50 (IC50) and IC90 were calculated by the nonlinear regression method using GraphPad Prism 9.1.0 software (GraphPad Software, San Diego, CA, USA). Amoebae treated with 0.1% DMSO were used as a control, representing 100% cell viability. Morphological changes of the amoebae were observed microscopically.

| Structure (SMILES) | IC50 [2] [µM] | CC50 [1] [µM] | Selectivity Index [2] | Relative Potency to Miltefosine [2] [fold] | fold increase in potency of anti-amoebic activity relative to corresponding cis-configured derivative [2] |
| --- | --- | --- | --- | --- | --- |
| CCCCCCCCCCCCO[C@H]1CCC[C@H]1COP(=O)([O-])OCC[N+](C)(C)C [Compound 1a] | 162 ± 1.02 | > 400 | >2.47 | ~0.90 |  |
| CCCCCCCCCCCCCO[C@H]1CCC[C@H]1COP(=O)([O-])OCC[N+](C)(C)C [Compound 1b] | 39.1 ± 0.6 | 105 ± 4.76 | 2.69 | 3.74 |  |
| CCCCCCCCCCCCCCCCCCO[C@H]1CCC[C@H]1COP(=O)([O-])OCC[N+](C)(C)C [Compound 1c] | 72.7 ± 2.32 | 158.4 ± 0.71 | 2.18 | 2.01 |  |
| CCCCCCCCCCCCCCCCCCCCO[C@H]1CCC[C@H]1COP(=O)([O-])OCC[N+](C)(C)C [Compound 1d] | 43.6 ± 1.02 | 69.49 ± 0.16 | 1.59 | 3.4 |  |
| CCCCCCCCCCCCCCCCCCCCCCO[C@H]1CCC[C@H]1COP(=O)([O-])OCC[N+](C)(C)C [Compound 1e] | 166 ± 68 | 114 ± 3.2 | 0.69 | 0.88 |  |

Now from value to compound, other results behind:

| IC50 [2] [µM] | Structure (SMILES) | CC50 [1] [µM] | Selectivity Index [2] | Relative Potency to Miltefosine [2] [fold] | fold increase in potency of anti-amoebic activity relative to corresponding cis-configured derivative [2] |
| --- | --- | --- | --- | --- | --- |
| 23.7 ± 0.5 | CCCCCCCCCCCCCCCCCCO[C@@H]1CCC[C@H]1COP(=O)([O-])OCC[N+](C)(C)C [Compound 2b] | 69.71 ± 0.04 | 2.94 | 6.18 | 2.19- to 3.07 fold |
| 19.6 ± 0.44 | CCCCCCCCCCCCCCCCCCCCO[C@@H]1CCC[C@H]1COP(=O)([O-])OCC[N+](C)(C)C [Compound 2c] | 43 ± 8.37 | 2.19 | 7.46 | 2.19- to 3.07 fold |
| 55.6 ± 3.32 | CCCCCCCCCCCCCCCCCCCCCCO[C@@H]1CCC[C@H]1COP(=O)([O-])OCC[N+](C)(C)C [Compound 2d] | 71.03 ± 0.61 | 1.28 | 2.63 | 2.98 fold |
| 279.4 ± 0.94 | CCCCCCCCCCCCOC[C@@H]1CCC[C@H]1OP(=O)([O-])OCC[N+](C)(C)C [Compound 3a] | > 400 | >1.43 | 0.52 |  |
| 76.3 ± 1.56 | CCCCCCCCCCCCCCCCCCOC[C@@H]1CCC[C@H]1OP(=O)([O-])OCC[N+](C)(C)C [Compound 3c] | 58.5 ± 2.08 | 0.77 | 1.92 |  |
